The term pIC50 denotes −log10 of the IC50, conventionally taken in molar units.

Drawing on ChEMBL document CHEMBL5316313, “Discovery of Novel 3-Phenylpiperidine Derivatives Targeting the β-Catenin/B-Cell Lymphoma 9 Interaction as a Single Agent and in Combination with the Anti-PD-1 Antibody for the Treatment of Colorectal Cancer” (J Med Chem, 2023), this text covers IC50, Activity and viability for two molecules.

Experiment [1] deals with T1, beta-catenin-B-cell lymphoma 9 protein complex (Homo sapiens, UniProt P35222).
T1 sequence (P35222 whole entry): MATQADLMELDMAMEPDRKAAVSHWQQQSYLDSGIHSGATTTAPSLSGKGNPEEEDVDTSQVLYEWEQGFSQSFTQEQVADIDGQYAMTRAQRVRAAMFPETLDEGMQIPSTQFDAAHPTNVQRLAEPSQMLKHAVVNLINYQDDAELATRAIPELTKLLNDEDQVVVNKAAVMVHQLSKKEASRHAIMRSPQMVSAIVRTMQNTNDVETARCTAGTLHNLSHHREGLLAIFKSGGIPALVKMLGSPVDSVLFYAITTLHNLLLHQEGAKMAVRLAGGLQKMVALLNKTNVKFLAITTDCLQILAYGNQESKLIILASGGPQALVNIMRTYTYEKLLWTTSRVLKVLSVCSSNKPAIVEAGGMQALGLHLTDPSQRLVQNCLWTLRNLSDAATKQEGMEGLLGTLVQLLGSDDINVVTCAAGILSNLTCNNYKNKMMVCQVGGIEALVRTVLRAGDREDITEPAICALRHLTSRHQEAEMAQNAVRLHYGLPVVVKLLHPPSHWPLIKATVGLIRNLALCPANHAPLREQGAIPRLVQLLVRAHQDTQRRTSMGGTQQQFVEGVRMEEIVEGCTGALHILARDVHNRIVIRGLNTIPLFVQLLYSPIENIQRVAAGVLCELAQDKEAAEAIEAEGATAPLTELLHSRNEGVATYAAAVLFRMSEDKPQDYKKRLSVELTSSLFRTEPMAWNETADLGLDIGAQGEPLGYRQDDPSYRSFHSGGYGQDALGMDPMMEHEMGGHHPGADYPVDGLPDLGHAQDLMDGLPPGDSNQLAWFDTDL
T1 sequence (O00512 whole entry): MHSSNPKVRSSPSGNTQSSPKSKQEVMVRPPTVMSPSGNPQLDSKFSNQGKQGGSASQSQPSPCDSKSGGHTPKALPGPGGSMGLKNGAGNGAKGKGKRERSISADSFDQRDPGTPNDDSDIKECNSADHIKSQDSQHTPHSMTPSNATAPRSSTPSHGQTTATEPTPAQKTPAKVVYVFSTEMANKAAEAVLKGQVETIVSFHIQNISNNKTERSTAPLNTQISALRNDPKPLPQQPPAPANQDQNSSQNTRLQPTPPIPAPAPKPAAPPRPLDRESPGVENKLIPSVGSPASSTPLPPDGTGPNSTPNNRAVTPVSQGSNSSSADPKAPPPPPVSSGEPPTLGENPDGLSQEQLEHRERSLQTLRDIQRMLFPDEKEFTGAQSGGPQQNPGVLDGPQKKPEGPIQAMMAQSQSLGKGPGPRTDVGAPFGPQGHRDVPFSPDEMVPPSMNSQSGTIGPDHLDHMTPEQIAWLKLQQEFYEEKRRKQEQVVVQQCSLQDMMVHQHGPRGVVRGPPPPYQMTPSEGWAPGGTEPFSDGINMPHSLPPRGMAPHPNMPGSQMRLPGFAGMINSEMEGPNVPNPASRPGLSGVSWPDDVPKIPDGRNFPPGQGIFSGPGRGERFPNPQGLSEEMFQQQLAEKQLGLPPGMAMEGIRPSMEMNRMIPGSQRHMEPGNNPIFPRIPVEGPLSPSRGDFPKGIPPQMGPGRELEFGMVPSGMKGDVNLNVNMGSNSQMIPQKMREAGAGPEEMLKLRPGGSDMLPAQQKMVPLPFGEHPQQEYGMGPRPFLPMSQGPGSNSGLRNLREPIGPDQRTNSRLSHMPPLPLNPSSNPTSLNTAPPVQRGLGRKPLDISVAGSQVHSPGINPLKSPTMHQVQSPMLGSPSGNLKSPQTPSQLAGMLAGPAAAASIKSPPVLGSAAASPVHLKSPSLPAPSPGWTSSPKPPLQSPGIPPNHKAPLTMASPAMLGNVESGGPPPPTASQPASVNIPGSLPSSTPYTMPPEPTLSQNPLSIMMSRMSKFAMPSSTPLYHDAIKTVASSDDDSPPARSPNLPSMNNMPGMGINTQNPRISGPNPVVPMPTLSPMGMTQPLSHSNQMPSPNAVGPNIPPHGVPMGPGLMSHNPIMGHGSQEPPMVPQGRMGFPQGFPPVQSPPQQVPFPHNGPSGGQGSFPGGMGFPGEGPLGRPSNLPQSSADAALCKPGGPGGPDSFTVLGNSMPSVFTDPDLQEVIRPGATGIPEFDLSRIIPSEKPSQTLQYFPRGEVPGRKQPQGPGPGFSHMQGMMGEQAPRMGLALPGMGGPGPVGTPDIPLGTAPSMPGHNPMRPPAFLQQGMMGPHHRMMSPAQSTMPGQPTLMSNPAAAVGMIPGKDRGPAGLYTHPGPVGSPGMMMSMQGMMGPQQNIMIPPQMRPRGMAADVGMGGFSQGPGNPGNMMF
The experiment can be described thus: Inhibition of beta-catenin/BCL9 protein-protein interaction in Wnt-dependent human SW480 cells assessed as reduction in Axin2 expression level by qRT-PCR assay. Format: cell-based.

In a further experiment the test system is HEK293. As to the kind of experiment: Induction of apoptosis in Wnt-independent human HEK293 cells assessed as early apoptotic cells at 20 uM incubated for 24 hrs by Annexin V-Alexa Fluor 647/PI staining based flow cytomtery (Rvb=17.4%). The format is functional.
Experiment [2] concerns HCT-116. As to the kind of experiment: Induction of apoptosis in Wnt-dependent human HCT-116 cells assessed as necrotic cells at 20 uM incubated for 24 hrs by Annexin V-Alexa Fluor 647/PI staining based flow cytomtery (Rvb=1.47%). Format: functional.
In experiment [3] the test system is HCT-116. As to the kind of experiment: Induction of apoptosis in Wnt-dependent human HCT-116 cells assessed as viable cells at 20 uM incubated for 24 hrs by Annexin V-Alexa Fluor 647/PI staining based flow cytomtery (Rvb=69.5%). The format is functional. As to conditions: read-out: Activity.
The test system of experiment [4] is CT26. As to the kind of experiment: Induction of apoptosis in Wnt-dependent mouse CT26 cells assessed as necrotic cells at 10 uM incubated for 24 hrs by Annexin V-Alexa Fluor 647/PI staining based flow cytomtery (Rvb=1.04%). Format: functional.
In experiment [5] the test system is CT26. The experiment can be described thus: Induction of apoptosis in Wnt-dependent mouse CT26 cells assessed as necrotic cells at 20 uM incubated for 24 hrs by Annexin V-Alexa Fluor 647/PI staining based flow cytomtery (Rvb=1.04%). Format: functional.
Experiment [6] relates to CT26. As to the kind of experiment: Induction of apoptosis in Wnt-dependent mouse CT26 cells assessed as viable cells at 20 uM incubated for 24 hrs by Annexin V-Alexa Fluor 647/PI staining based flow cytomtery (Rvb=70.7%). The format is functional. Conditions: read-out: Activity.
The subject of experiment [7] is CT26. The experiment can be described thus: Antiproliferative activity against Wnt-dependent mouse CT26 cells assessed as cell growth inhibition incubated for 48 hrs by CellTiter-Glo assay. The format is functional, cell-based.
Experiment [8] relates to CT26. The experiment can be described thus: Synergistic antitumor activity in mouse CT26 cells xenografted in BALB/c mouse assessed as increase in CD8+ T cell infiltration into tumor at 30 mg/kg, ip QD in presence of anti-PD-1 antibody cotreatment at 10 mg/kg,ip BIW by flow cytometry. The format is functional, organism-based.
The subject of experiment [9] is CT26. The experiment can be described thus: Antitumor activity in mouse CT26 cells xenografted in BALB/c mouse assessed as increase in granzyme B-positive CD8+ T cell infiltration into tumor at 30 mg/kg, ip QD by flow cytometry. The format is functional, organism-based. Background: Flow cytometry measures light scatter and fluorescence of single cells or particles in a stream.

pIC50: −log10 of the molar value. The source made the active and inactive calls. The calls are words filed in the database; no cut-off is given here.

On to `O=C1[C@H](Cc2ccc(O)cc2)N2C(=O)CCN(C(=O)NCc3ccccc3)[C@H]2CN1Cc1cccc2ccccc12`, for which the pIC50 in [1] was 4.97.
Take `CC(C)c1ccc(-c2cccc(S(=O)(=O)N3CCCC(c4cccc(OC(C)(C)C(=O)NS(=O)(=O)c5ccc(C(F)(F)F)cc5)c4)C3)c2)cc1` (stereo not given): the Activity with HEK293 stood at 17%; in the experiment on HCT-116 [2], 3.22%; in the experiment on CT26 [4] it was 1.91%; in the experiment on CT26 [5], 1.42%. Also, the viability at 20 µM worked out at 37.3% with HCT-116 [3] and 16% in the experiment with CT26 [6]. Also, the result in the experiment with CT26 [7], in the experiment with CT26 [8] and in the experiment with CT26 [9] was Active.
